Read-outs that look alike come from different tables or passages of the source.
Columns and labels:
[1] = target: isolated recombinant JAK2 kinase domain (Homo sapiens (Human), UniProt O60674); experiment: JAK2 enzyme assay (Caliper LabChip, Ki); assay type: biochemical
Protocol: (§1) JAK Enzyme Assays were carried out as follows:
The activity of the isolated recombinant JAK1 and JAK2 kinase domain was measured by monitoring phosphorylation of a peptide derived from JAK3 ([…] fluorescently labeled on the N-terminus with 5-carboxyfluorescein) using the Caliper LabChip® technology (Caliper Life Sciences, Hopkinton, Mass.). […] Reactions were incubated at 22° C. in 384-well polypropylene microtiter plates for 30 minutes and then stopped by addition of 25 μL of an EDTA containing solution (100 mM HEPES buffer (pH 7.2), 0.015% Brij-35, 150 mM EDTA), resulting in a final EDTA concentration of 50 mM. After termination of the kinase reaction, the proportion of phosphorylated product was determined as a fraction of total peptide substrate using the Caliper LabChip® 3000 according to the manufacturer's specifications.

[2] = target: isolated recombinant JAK1 kinase domain (Homo sapiens (Human), UniProt P23458); experiment: JAK1 enzyme assay (Caliper LabChip, Ki); assay type: biochemical
Sequence of isolated recombinant JAK1 kinase domain (P23458 875-1153): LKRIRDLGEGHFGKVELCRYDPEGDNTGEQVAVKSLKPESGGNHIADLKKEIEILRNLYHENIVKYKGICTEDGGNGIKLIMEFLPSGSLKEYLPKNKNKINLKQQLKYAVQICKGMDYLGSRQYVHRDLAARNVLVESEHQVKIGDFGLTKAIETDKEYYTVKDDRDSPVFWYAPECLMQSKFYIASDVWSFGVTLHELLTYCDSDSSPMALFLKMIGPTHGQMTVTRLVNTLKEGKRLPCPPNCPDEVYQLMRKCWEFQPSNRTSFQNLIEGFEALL
Protocol: as §1
The activity of the isolated recombinant JAK1 and JAK2 kinase domain was measured by monitoring phosphorylation of a peptide derived from JAK3 (Val-Ala-Leu-Val-Asp-Gly-Tyr-Phe-Arg-Leu-Thr-Thr, fluorescently labeled on the N-terminus with 5-carboxyfluorescein) using the Caliper LabChip® technology (Caliper Life Sciences, Hopkinton, Mass.). […] Reactions were incubated at 22° C. in 384-well polypropylene microtiter plates for 30 minutes and then stopped by addition of 25 μL of an EDTA containing solution (100 mM HEPES buffer (pH 7.2), 0.015% Brij-35, 150 mM EDTA), resulting in a final EDTA concentration of 50 mM. After termination of the kinase reaction, the proportion of phosphorylated product was determined as a fraction of total peptide substrate using the Caliper LabChip® 3000 according to the manufacturer's specifications. Ki values were then determined using the Morrison tight binding model (Morrison, J. F., Biochim. Biophys. Acta. 185:269-296 (1969); William, J. W. and Morrison, J. F., Meth. Enzymol., 63:437-467 (1979)) modified for ATP-competitive inhibition [Ki=Ki,app/(1+[ATP]/Km,app)].

Sequence of isolated recombinant JAK2 kinase domain (O60674 849-1124): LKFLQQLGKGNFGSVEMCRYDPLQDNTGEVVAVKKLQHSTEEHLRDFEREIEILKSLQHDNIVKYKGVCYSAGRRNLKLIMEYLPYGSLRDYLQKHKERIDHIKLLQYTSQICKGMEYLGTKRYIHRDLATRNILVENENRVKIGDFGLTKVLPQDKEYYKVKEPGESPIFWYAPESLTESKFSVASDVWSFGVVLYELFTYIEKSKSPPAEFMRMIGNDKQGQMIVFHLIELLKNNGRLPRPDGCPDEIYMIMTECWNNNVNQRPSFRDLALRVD

With `N#CC[C@]1(n2cc(C(N)=O)c(NC(=O)C3CC3)n2)CC[C@H](N2CC(O)(C(F)(F)F)C2)CC1` [Example 138, 1-[1-(cyanomethyl)-4-[3-hydroxy-3-(trifluoromethyl)azetidin-1-yl]cyclohexyl]-3-(cyclopropanecarbonylamino) pyrazole-4-carboxamide] the Ki [1] was greater than 319 nM and the Ki ([2]; read-out: JAK1 Ki) was greater than 562 nM.

For `N#CC[C@]1(n2cc(C(N)=O)c(NC(=O)C3CC3)n2)CC[C@H](NC2CC(F)(F)C2)CC1` [Example 172, 1-[1-(cyanomethyl)-4-[(3,3-difluorocyclobutyl)amino]cyclohexyl]-3-(cyclopropanecarbonylamino) pyrazole-4-carboxamide], the Ki [1] was greater than 319 nM and the Ki [2] was greater than 562 nM.

`N#CCC1(n2cc(C(N)=O)c(NC(=O)C3CC3)n2)CCN(Cc2cccc(OC(F)(F)F)c2)CC1` [Example 48] showed a Ki [1] of 189 nM and a Ki ([2]; read-out: JAK1 Ki) of 27.7 nM.

With `COc1ccccc1CN1CCC(CC#N)(n2cc(C(N)=O)c(NC(=O)C3CC3)n2)CC1` [Example 41] the Ki [1] was greater than 319 nM and the Ki ([2]; read-out: JAK1 Ki) was 53.8 nM.

`N#CC[C@]1(n2cc(C(N)=O)c(NC(=O)C3CC3)n2)CC[C@@H](NCc2cccc(C#N)c2)CC1` [Example 124] gave a Ki [1] of 273 nM and a Ki [2] of 32.7 nM.

Work on `N#CCC1(n2cc(C(N)=O)c(NC(=O)C3CC3)n2)CCN(Cc2ccc(-c3cccnc3)cc2)CC1` [Example 158] yielded a Ki [1] of 39.4 nM and a Ki ([2]; read-out: JAK1 Ki) of 8 nM.

`CN[C@H]1CC[C@](CC#N)(n2cc(C(N)=O)c(NC(=O)C3CC3)n2)CC1` [Example 99] was tested, and the Ki [1] was greater than 319 nM and the Ki [2] was 92.2 nM.

In the case of `N#CC[C@]1(n2cc(C(N)=O)c(NC(=O)C3CC3)n2)CC[C@H](NCc2ccccc2)CC1` [Example 109], the Ki [1] is reported as greater than 319 nM and the Ki [2] is reported as greater than 562 nM.

With `N#CCC1(n2cc(C(N)=O)c(NC(=O)C3CC3)n2)CCN(Cc2cnn(-c3ccccc3)c2)CC1` [Example 90] the Ki [1] was 133 nM and the Ki ([2]; read-out: JAK1 Ki) was 7.2 nM.

`N#CCC1(n2cc(C(N)=O)c(NC(=O)C3CC3)n2)CCN(Cc2cccc(NS(=O)(=O)c3ccccc3)c2)CC1` [Example 74] gave a Ki [1] of 58.7 nM and a Ki ([2]; read-out: JAK1 Ki) of 6.1 nM.

`N#CCC1(n2cc(C(N)=O)c(NC(=O)C3CC3)n2)CCN(Cc2cccc(Br)c2)CC1` [Example 51] was tested, and the Ki [1] was 53.7 nM and the Ki ([2]; read-out: JAK1 Ki) was 6.5 nM.

For `N#CCC1(n2cc(C(N)=O)c(NC(=O)C3CC3)n2)CCN(Cc2ccc(-c3cccc(C(F)(F)F)c3)cc2)CC1` [Example 150, 1-[4-(cyanomethyl)-1-[[4-[3-(trifluoromethyl)phenyl]phenyl]methyl]-4-piperidyl]-3-(cyclopropanecarbonylamino) pyrazole-4-carboxamide], the Ki [1] was 208 nM and the Ki ([2]; read-out: JAK1 Ki) was 15.9 nM.

For `N#CCC1(n2cc(C(N)=O)c(NC(=O)C3CC3)n2)CCN(Cc2ccc(-c3ccncc3)cc2)CC1` [Example 159, 1-[4-(cyanomethyl)-1-[[4-(4-pyridyl)phenyl]methyl]-4-piperidyl]-3-(cyclopropanecarbonylamino) pyrazole-4-carboxamide], the Ki [1] was 101 nM and the Ki ([2]; read-out: JAK1 Ki) was 19 nM.

With `N#CCC1(n2cc(C(N)=O)c(NC(=O)C3CC3)n2)CCN(Cc2cccc(NS(=O)(=O)C(F)(F)F)c2)CC1` [Example 93] the Ki [1] was greater than 319 nM and the Ki ([2]; read-out: JAK1 Ki) was 72.1 nM.

With `N#CCC1(n2cc(C(N)=O)c(NC(=O)C3CC3)n2)CCN(CCc2ccccc2)CC1` [Example 183, 1-[4-(cyanomethyl)-1-(2-phenylethyl)-4-piperidyl]-3-(cyclopropanecarbonylamino) pyrazole-4-carboxamide] the Ki [1] was greater than 319 nM and the Ki ([2]; read-out: JAK1 Ki) was 88.3 nM.

In the case of `N#CCC1(n2cc(C(N)=O)c(NC(=O)C3CC3)n2)CCN(Cc2ccc(-n3ccnc3)cc2)CC1` [Example 85], the Ki [1] is reported as 170 nM and the Ki ([2]; read-out: JAK1 Ki) is reported as 45.1 nM.

`COc1ccc(CN2CCC(CC#N)(n3cc(C(N)=O)c(NC(=O)C4CC4)n3)CC2)cc1` [Example 43] gave a Ki [1] of 170 nM and a Ki ([2]; read-out: JAK1 Ki) of 25.8 nM.

For `N#CC[C@]1(n2cc(C(N)=O)c(NC(=O)C3CC3)n2)CC[C@H](NCc2ccc(Cl)cc2)CC1` [Example 119], the Ki [1] was greater than 319 nM and the Ki [2] was 437 nM.

Work on `N#CCC1(n2cc(C(N)=O)c(NC(=O)C3CC3)n2)CCN(Cc2ccc(-n3cncn3)cc2)CC1` [Example 86] yielded a Ki [1] greater than 319 nM and a Ki ([2]; read-out: JAK1 Ki) of 99.7 nM.

Work on `N#CCC1(n2cc(C(N)=O)c(NC(=O)[C@H]3C[C@@H]3C(F)(F)F)n2)CCN(CC(F)(F)F)CC1` [Example 27] yielded a Ki [1] of 781 nM and a Ki ([2]; read-out: JAK1 Ki) of 102 nM.

`CNC(=O)Nc1cn(C2(CC#N)CCN(CC(F)(F)F)CC2)nc1C(N)=O` [Example 3, 1-(4-(Cyanomethyl)-1-(2,2,2-trifluoroethyl)piperidin-4-yl)-4-(3-methylureido)-1H-pyrazole-3-carboxamide] gave a Ki [1] of 15.7 nM and a Ki ([2]; read-out: JAK1 Ki) of 6.4 nM.

`N#CC[C@]1(n2cc(C(N)=O)c(NC(=O)C3CC3)n2)CC[C@H](NCc2cccc(C#N)c2)CC1` [Example 123] gave a Ki [1] greater than 319 nM and a Ki [2] greater than 562 nM.

Work on `N#CCC1(n2cc(C(N)=O)c(NC(=O)[C@H]3C[C@H]3C3CC3)n2)CCN(CC(F)(F)F)CC1` (stereo in doubt) [Example 176, 1-[4-(cyanomethyl)-1-(2,2,2-trifluoroethyl)-4-piperidyl]-3-[(2-cyclopropylcyclopropanecarbonyl)amino]pyrazole-4-carboxamide] yielded a Ki [1] greater than 319 nM and a Ki ([2]; read-out: JAK1 Ki) of 302 nM.

`C[C@@H]1C[C@H]1C(=O)Nc1nn(C2(CC#N)CCN(CC(F)(F)F)CC2)cc1C(N)=O` [Example 32] gave a Ki [1] of 196 nM and a Ki ([2]; read-out: JAK1 Ki) of 71.8 nM.

With `N#CCC1(n2cc(C(N)=O)c(NC(=O)C3CC3)n2)CCC2(CC1)COC2` [Example 5, 1-(7-(Cyanomethyl)-2-oxaspiro[3.5]nonan-7-yl)-3-(cyclopropanecarboxamido)-1H-pyrazole-4-carboxamide] the Ki [1] was 189 nM and the Ki ([2]; read-out: JAK1 Ki) was 22.8 nM.

`N#CC[C@]1(n2cc(C(N)=O)c(NC(=O)C3CC3)n2)CC[C@@H](NCc2ccc(C#N)cc2)CC1` [Example 122] gave a Ki [1] greater than 319 nM and a Ki [2] of 562 nM.

`N#CCC1(n2cc(C(N)=O)c(NC(=O)C3CC3)n2)CCN(Cc2ccc(C(F)(F)F)cc2)CC1` [Example 63] showed a Ki [1] of 134 nM and a Ki ([2]; read-out: JAK1 Ki) of 14.4 nM.

For `CC(C)(C)OC(=O)N[C@H]1CC[C@@](CC#N)(n2cc(C(N)=O)c(NC(=O)C3CC3)n2)CC1` [Example 36], the Ki [1] was greater than 319 nM and the Ki [2] was greater than 562 nM.

`N#CCC1(n2cc(C(N)=O)c(NC(=O)C3CC3)n2)CCN(Cc2ccc(-n3cnc4ccccc43)cc2)CC1` [Example 88] was tested, and the Ki [1] was 150 nM and the Ki ([2]; read-out: JAK1 Ki) was 26.3 nM.

Work on `CC(c1ccccc1)N1CCC(CC#N)(n2cc(C(N)=O)c(NC(=O)C3CC3)n2)CC1` (centres unmarked) [Example 22] yielded a Ki [1] of 151 nM and a Ki ([2]; read-out: JAK1 Ki) of 37.4 nM.

`N#CCC1(n2cc(C(N)=O)c(NC(=O)C3CC3(F)F)n2)CCN(CC(F)(F)F)CC1` (centres unmarked) [Example 26] was tested, and the Ki [1] was 203 nM and the Ki ([2]; read-out: JAK1 Ki) was 11.5 nM.

Molecule `CN(C)C(=O)c1ccccc1-c1ccc(CN2CCC(CC#N)(n3cc(C(N)=O)c(NC(=O)C4CC4)n3)CC2)cc1` [Example 144, 1-[4-(cyanomethyl)-1-[[4-[2-(dimethylcarbamoyl)phenyl]phenyl]methyl]-4-piperidyl]-3-(cyclopropanecarbonylamino) pyrazole-4-carboxamide] has a Ki [1] of 63.5 nM and a Ki ([2]; read-out: JAK1 Ki) of 8.8 nM.

In the case of `N#CC[C@]1(n2cc(C(N)=O)c(NC(=O)C3CC3)n2)CC[C@@H](NCc2ccc(Cl)cc2)CC1` [Example 120], the Ki [1] is reported as 115 nM and the Ki [2] is reported as 12 nM.

For `N#CC[C@]1(n2cc(C(N)=O)c(NC(=O)C3CC3)n2)CC[C@H](NC2CCC(F)(F)CC2)CC1` [Example 174, 1-[1-(cyanomethyl)-4-[(4,4-difluorocyclohexyl)amino]cyclohexyl]-3-(cyclopropanecarbonylamino) pyrazole-4-carboxamide], the Ki [1] was greater than 319 nM and the Ki [2] was greater than 562 nM.
